Results as given in BindingDB's records for doi:10.1021/bi300490r (University of Pittsburgh, 2012).

Columns and labels:
[1] = target: T1, DNA-(apurinic or apyrimidinic site) endonuclease (Homo sapiens, UniProt P27695); experiment: Molecular Beacon Assay
Experimental: A fluorescenc-based molecular beacon assay to measure APE-1 protein activity and inhibition was performed as described.

[2] = target: T1, DNA-(apurinic or apyrimidinic site) endonuclease; experiment: Gel-Based Assay
Excerpt: In addition to the real-time fluorescence assay for studying inhibition of APE-1 activity, we also employed a gel-based assay to visualize and quantify repair activity of APE-1 and its inhibition.

T1 sequence (P27695 whole entry): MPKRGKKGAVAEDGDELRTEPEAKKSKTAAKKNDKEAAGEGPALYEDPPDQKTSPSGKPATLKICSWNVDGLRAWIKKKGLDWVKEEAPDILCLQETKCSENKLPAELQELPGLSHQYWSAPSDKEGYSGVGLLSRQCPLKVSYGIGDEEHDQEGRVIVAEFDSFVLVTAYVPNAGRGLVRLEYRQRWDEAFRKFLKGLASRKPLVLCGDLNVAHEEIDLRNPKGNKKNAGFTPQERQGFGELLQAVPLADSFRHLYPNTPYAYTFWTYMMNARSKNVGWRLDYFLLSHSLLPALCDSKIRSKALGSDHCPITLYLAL

Row | Compound | Ki [1] [µM] | IC50 [2] [µM]
1 | O=C(O)C(CCCCNc1ccc([N+](=O)[O-])cc1[N+](=O)[O-])Nc1ccc([N+](=O)[O-])cc1[N+](=O)[O-] (configuration not stated) [NSC89640, 9] | 13 | –
2 | O=C(/C=C\c1ccc([N+](=O)[O-])cc1)NCCCCNC(=O)/C=C/c1ccc([N+](=O)[O-])cc1 [NSC107215, 10] | 17 | –
3 | COc1ccc(C(Cc2ccccc2)/N=N/c2ccc([N+](=O)[O-])c([N+](=O)[O-])c2)cc1 (configuration not stated) [NSC131534, 11] | 6.7 | –
4 | Cc1ccc2nc(C)cc(N=NC(C)c3cn(C)n(-c4ccccc4)c3=O)c2c1 (configuration not stated) [NSC300598, 7] | 10.9 | –
5 | COc1cccc(CN=Nc2cc(C)nc3cc4c(cc23)OCO4)c1 [NSC332384, 2] | 0.22 | 10.1
6 | Cc1cc(N=NCc2ccc3c(c2)OCO3)c2cc3c(cc2n1)OCO3 [NSC332389, 3] | 0.19 | 2.9
7 | CCn1c2ccccc2c2cc(CN=Nc3cc(C)nc4cc5c(cc34)OCO5)ccc21 [NSC332395, 4] | 0.12 | 4.1
8 | Cc1cc(N=NCc2c(C)n(C)n(-c3ccccc3)c2=O)c2cc3c(cc2n1)OCO3 [NSC332396, 5] | 0.68 | 34.4
9 | Cc1cc(N=NC(C)c2cn(C)n(-c3ccccc3)c2=O)c2cc3c(cc2n1)OCO3 (configuration not stated) [NSC332398, 1] | 0.18 | 4.4
10 | C/C(=N\Nc1cc(C)c2ccccc2n1)c1cn(C)n(-c2ccccc2)c1=O [NSC332410, 8] | – | > 100
11 | O=C(CC(=Nc1ccccc1)C(=O)c1ccccc1)c1ccccc1 [NSC402686, 14] | 37 | –
12 | N=c1[nH]nc2nc(CC(=O)c3ccccc3[N+](=O)[O-])c(CC(=O)c3ccccc3[N+](=O)[O-])nn12 [NSC614430, 13] | 4.9 | –
